Source: the supplement of paper PMC10627819

What was measured:
[1] = system: S. aureus DSM 20231; test: fitness (endpoint OD595 vs no drug) (fraction); higher = more growth
Procedure, shortened: (§1)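 In 384-well plates at 37 °C, cultures began at OD595 0.01 in 30 µl, with 55 µl used for S. pneumoniae. OD595 readings every 30 min for 14 h were corrected by the first reading. Fitness divides the stationary-phase transition optical density by the robust mean of no-drug control wells. The result is capped at 1.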

[2] = system: S. aureus Newman; test: as above
Procedure, shortened: as §1

[3] = system: S. pneumoniae D39V; test: as above
Procedure, shortened: as §1

[4] = system: B. subtilis 168; test: Bliss interaction score (quartile over a dose matrix) (fitness difference); higher = more antagonism (negative = synergy)
Procedure, shortened: (§2)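 Fitness was derived from optical density at entry into stationary phase, divided by the robust mean of the no-drug wells on the same plate. That reading was taken as OD595, and the ratio was capped at 1. Single-drug fitness was inferred from the combination data. The Bliss score, observed fitness minus the expected product of single-drug fitness, was summarised as quartiles over technical, biological and donor/recipient replicates.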

[5] = system: S. aureus DSM 20231; test: as above
Procedure, shortened: as §2

[6] = system: S. aureus Newman; test: as above
Procedure, shortened: as §2

[7] = system: S. pneumoniae D39V; test: as above
Procedure, shortened: as §2
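For Bliss interaction score (quartile over a dose matrix) in this document: first quartile when negative (synergy) and third quartile when positive (antagonism).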

CC1(C)S[C@@H]2[C@H](NC(=O)[C@H](N)c3ccc(O)cc3)C(=O)N2[C@H]1C(=O)O [Amoxicillin] + C[C@@H]1O[C@@H]1P(=O)(O)O [Fosfomycin]
Conditions | fitness
[1], first compound 0.0625 µg/mL, partner 0.781 µg/mL | 0.469
[1], first compound 0.0625 µg/mL, partner 1.562 µg/mL | 0.369
[1], first compound 0.0625 µg/mL, partner 3.124 µg/mL | 0.0511
[1], first compound 0.125 µg/mL, partner 0.781 µg/mL | 0.278
[1], first compound 0.125 µg/mL, partner 1.562 µg/mL | 0.0267
[1], first compound 0.125 µg/mL, partner 3.124 µg/mL | 0.0388
[1], first compound 0.25 µg/mL, partner 0.781 µg/mL | 0.0416
[1], first compound 0.25 µg/mL, partner 1.562 µg/mL | 0.0638
[1], first compound 0.25 µg/mL, partner 3.124 µg/mL | 0.038
[2], first compound 0.0625 µg/mL, partner 0.781 µg/mL | 0.612
[2], first compound 0.0625 µg/mL, partner 1.562 µg/mL | 0.506
[2], first compound 0.125 µg/mL, partner 0.781 µg/mL | 0.597
[2], first compound 0.125 µg/mL, partner 3.124 µg/mL | 0.185
[2], first compound 0.25 µg/mL, partner 0.781 µg/mL | 0.567
[2], first compound 0.25 µg/mL, partner 3.124 µg/mL | 0.096
[3], first compound 0.0008 µg/mL, partner 1.25 µg/mL | 0.938
[3], first compound 0.0008 µg/mL, partner 2.5 µg/mL | 0.893
[3], first compound 0.0008 µg/mL, partner 5 µg/mL | 0.803
[3], first compound 0.0015 µg/mL, partner 1.25 µg/mL | 0.914
[3], first compound 0.0015 µg/mL, partner 2.5 µg/mL | 0.887
[3], first compound 0.0015 µg/mL, partner 5 µg/mL | 0.672
[3], first compound 0.003 µg/mL, partner 1.25 µg/mL | 0.877
[3], first compound 0.003 µg/mL, partner 2.5 µg/mL | 0.834
[3], first compound 0.003 µg/mL, partner 5 µg/mL | 0.531

fitness, one replicate
Conditions | partner 0.781 µg/mL | partner 1.25 µg/mL | partner 1.562 µg/mL | partner 2.5 µg/mL | partner 3.124 µg/mL | partner 5 µg/mL
[1], first compound 0.5 µg/mL | 0.0154 | – | 0.0129 | – | 0.0057 | –
[3], first compound 0.006 µg/mL | – | 0.339 | – | 0.279 | – | 0.146

Conditions | Bliss interaction score
[4] | 0.102
[5] | -0.169
[6] | 0.0512
[7] | -0.113

CCCCCCCCCC(=O)N[C@@H](Cc1c[nH]c2ccccc12)C(=O)N[C@H](CC(N)=O)C(=O)N[C@@H](CC(=O)O)C(=O)N[C@@H]1C(=O)NCC(=O)N[C@@H](CCCN)C(=O)N[C@@H](CC(=O)O)C(=O)N[C@H](C)C(=O)N[C@@H](CC(=O)O)C(=O)NCC(=O)N[C@H](CO)C(=O)N[C@@H]([C@H](C)CC(=O)O)C(=O)N[C@@H](CC(=O)c2ccccc2N)C(=O)O[C@@H]1C [Daptomycin] + CCCCCCCCCC(=O)N[C@@H]1[C@H]([C@@H]([C@H](O[C@H]1OC2=C3C=C4C=C2OC5=C(C=C(C=C5)[C@H]([C@H]6C(=O)N[C@@H](C7=C(C(=CC(=C7)O)OC8[C@H]([C@H]([C@@H]([C@H](O8)CO)O)O)O)C9=C(C=CC(=C9)[C@H](C(=O)N6)NC(=O)[C@@H]4NC(=O)[C@@H]1C2=CC(=CC(=C2)OC2=C(C=CC(=C2)[C@H](C(=O)N[C@H](CC2=CC(=C(O3)C=C2)Cl)C(=O)N1)N)O)O)O)C(=O)O)O[C@H]1[C@@H]([C@H]([C@@H]([C@H](O1)CO)O)O)NC(=O)C)Cl)CO)O)O [Teicoplanin]
fitness, main component drawn
Conditions | first compound 0.125 µg/mL | first compound 0.25 µg/mL | first compound 0.5 µg/mL | first compound 1 µg/mL | first compound 2 µg/mL
[1], partner 0.1562 µg/mL | 0.976 | 0.977 | ≥ 1 | 0.949 | ≥ 1
[1], partner 0.3125 µg/mL | ≥ 1 | ≥ 1 | ≥ 1 | ≥ 1 | 0.991
[1], partner 0.625 µg/mL | ≥ 1 | ≥ 1 | ≥ 1 | ≥ 1 | ≥ 1
[2], partner 0.1562 µg/mL | 0.998 | 0.992 | ≥ 1 | – | –
[2], partner 0.3125 µg/mL | ≥ 1 | ≥ 1 | ≥ 1 | – | –
[2], partner 0.625 µg/mL | ≥ 1 | ≥ 1 | ≥ 1 | – | –

fitness, [2], one replicate, main component drawn
Conditions | first compound 0.5 µg/mL | first compound 1 µg/mL | first compound 2 µg/mL
partner 0.62 µg/mL | 0.791 | 0.785 | 0.924
partner 1.24 µg/mL | 0.746 | 0.753 | 0.765
partner 2.48 µg/mL | 0.461 | 0.471 | 0.501

main component drawn
Conditions | Bliss interaction score
[4] | 0.0936
[5] | 0.0282
[6] | 0.0337
[7] | 0.0818

CCN(CC)CCOC(=O)c1ccc(N)cc1 [Procaine] + CCCCCCCCCC(=O)N[C@@H]1[C@H]([C@@H]([C@H](O[C@H]1OC2=C3C=C4C=C2OC5=C(C=C(C=C5)[C@H]([C@H]6C(=O)N[C@@H](C7=C(C(=CC(=C7)O)OC8[C@H]([C@H]([C@@H]([C@H](O8)CO)O)O)O)C9=C(C=CC(=C9)[C@H](C(=O)N6)NC(=O)[C@@H]4NC(=O)[C@@H]1C2=CC(=CC(=C2)OC2=C(C=CC(=C2)[C@H](C(=O)N[C@H](CC2=CC(=C(O3)C=C2)Cl)C(=O)N1)N)O)O)O)C(=O)O)O[C@H]1[C@@H]([C@H]([C@@H]([C@H](O1)CO)O)O)NC(=O)C)Cl)CO)O)O [Teicoplanin]
fitness, main component drawn
Conditions | first compound 85.5 µg/mL | first compound 171 µg/mL | first compound 342 µg/mL
[1], partner 0.1562 µg/mL | ≥ 1 | ≥ 1 | 0.992
[1], partner 0.3125 µg/mL | 0.975 | ≥ 1 | ≥ 1
[1], partner 0.625 µg/mL | ≥ 1 | ≥ 1 | ≥ 1
[2], partner 0.1562 µg/mL | 0.996 | ≥ 1 | 0.997
[2], partner 0.3125 µg/mL | 0.975 | 0.981 | 0.963
[2], partner 0.625 µg/mL | 0.83 | 0.898 | 0.889

fitness, [2], one replicate, main component drawn
Conditions | first compound 85.5 µg/mL | first compound 171 µg/mL | first compound 342 µg/mL
partner 0.62 µg/mL | 0.774 | 0.738 | 0.765
partner 1.24 µg/mL | 0.785 | 0.705 | 0.726
partner 2.48 µg/mL | 0.407 | 0.496 | 0.478

main component drawn
Conditions | Bliss interaction score
[4] | -0.0776
[5] | 0.044
[6] | 0.0323
[7] | -0.113
